In patent US20060069132A1, “Azolecarboxamide herbicides” (priority 2004, published 2006):

What was measured:
Surinam grass = assay: Test B pre-/postemergence herbicide test; assay type: in vivo, Urochloa decumbens; conditions: for Surinam Grass plant response rating (0 to 100 scale) / Plant response rating, Surinam Grass: preemergence; for Surinam Grass plant response rating: postemergence, scale 0 (no effect) to 100 (complete control)
How it was run: (§1)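 Evaluation is visual, comparing treated with control plants on a scale where 0 means no effect and 100 means full control. Treatments were preemergence, or postemergence on seedlings 2–18 cm tall, and held 13–15 days in the greenhouse.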

barnyardgrass [1] = assay: Test B pre-/postemergence herbicide test; assay type: in vivo, Echinochloa crus-galli; conditions: for Barnyardgrass plant response rating (0 to 100 scale) / Plant response rating, Barnyardgrass: preemergence; for Barnyardgrass plant response rating: postemergence, scale 0 (no effect) to 100 (complete control)
How it was run: (§2)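 Visual rating, 0 (no effect) to 100 (complete control), versus untreated controls after 13–15 d in greenhouse. Pre- and postemergence applications (postemergence plants 2–18 cm, 1–4 leaves); flooded paddy arm at 2-leaf stage. Compounds in non-phytotoxic solvent plus surfactant.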

cocklebur = assay: Test B pre-/postemergence herbicide test; assay type: in vivo, Xanthium strumarium; conditions: for Cocklebur plant response rating (0 to 100 scale) / Plant response rating, Cocklebur: preemergence; for Cocklebur plant response rating: postemergence, scale 0 (no effect) to 100 (complete control)
How it was run: as §2

pigweed = assay: Test B pre-/postemergence herbicide test; assay type: in vivo, Amaranthus retroflexus; conditions: for Pigweed plant response rating (0 to 100 scale) / Plant response rating, Pigweed: preemergence; for Pigweed plant response rating: postemergence, scale 0 (no effect) to 100 (complete control)
How it was run: as §1

corn = assay: Test B pre-/postemergence herbicide test; assay type: in vivo, Zea mays; conditions: for Corn plant response rating (0 to 100 scale) / Plant response rating, Corn: preemergence; for Corn plant response rating: postemergence, scale 0 (no effect) to 100 (complete control)
How it was run: as §1

rice = assay: Test B flooded paddy test; assay type: in vivo, Oryza sativa; conditions: 1000 g ai/ha, visual rating, scale 0 to 100 (0 no effect, 100 complete control), 13 to 15 days
How it was run: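 Each value is a visual 0–100 response rating taken against controls 13 to 15 days after treatment in the greenhouse. Plants received formulated chemical postemergence at the 1- to 4-leaf stage or, in flooded paddy, at the 2-leaf stage.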

[2] = tested on: small flower umbrella sedge; assay: Test B flooded paddy test; assay type: in vivo, Cyperus difformis; conditions: 1000 g ai/ha, visual rating, scale 0 to 100 (0 no effect, 100 complete control), 13 to 15 days
How it was run: (§3)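 Visual ratings, 0 (no effect) to 100 (complete control), made versus controls after 13–15 d greenhouse. Paddy plants treated at 2-leaf stage; postemergence plants at 1- to 4-leaf stage, 2–18 cm tall.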

velvetleaf = assay: Test B pre-/postemergence herbicide test; assay type: in vivo, Abutilon theophrasti; conditions: for Velvetleaf plant response rating (0 to 100 scale) / Plant response rating, Velvetleaf: preemergence; for Velvetleaf plant response rating: postemergence, scale 0 (no effect) to 100 (complete control)
How it was run: as §1

barnyardgrass [3] = assay: Test B flooded paddy test; assay type: in vivo, Echinochloa crus-galli; conditions: 1000 g ai/ha, visual rating, scale 0 to 100 (0 no effect, 100 complete control), 13 to 15 days
How it was run: as §3

wheat = assay: Test B postemergence herbicide test; assay type: in vivo, Triticum aestivum; design: key to Wheat plant response rating: 0 = no effect, 100 = complete control; conditions: postemergence, visual rating, scale 0 (no effect) to 100 (complete control)
How it was run: (§4)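 After treating 2-leaf paddy plants or 2–18 cm postemergence plants (1 to 4 leaves) with formulated chemical, researchers kept them in a greenhouse for 13–15 days. Effects were judged visually versus controls: 0 indicates none, 100 total control.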

giant foxtail = assay: Test B pre-/postemergence herbicide test; assay type: in vivo, Setaria faberi; conditions: for Foxtail, Giant plant response rating (0 to 100 scale) / Plant response rating, Foxtail, Giant: preemergence; for Foxtail, Giant plant response rating: postemergence, scale 0 (no effect) to 100 (complete control)
How it was run: as §1

wild oat = assay: Test B postemergence herbicide test; assay type: in vivo, Avena fatua; conditions: postemergence, visual rating, scale 0 (no effect) to 100 (complete control)
How it was run: as §4

large crabgrass = assay: Test B pre-/postemergence herbicide test; assay type: in vivo, Digitaria sanguinalis; conditions: for Crabgrass, Large plant response rating (0 to 100 scale) / Plant response rating, Crabgrass, Large: preemergence; for Crabgrass, Large plant response rating: postemergence, scale 0 (no effect) to 100 (complete control)
How it was run: as §1

blackgrass = assay: Test B postemergence herbicide test; assay type: in vivo, Alopecurus myosuroides; conditions: postemergence, visual rating, scale 0 (no effect) to 100 (complete control)
How it was run: as §3

ducksalad = assay: Test B flooded paddy test; assay type: in vivo, Heteranthera limosa; conditions: 1000 g ai/ha, visual rating, scale 0 to 100 (0 no effect, 100 complete control), 13 to 15 days
How it was run: as §3

[4] = 125 g ai/ha, 0 = no effect, 100 = complete control
[5] = 500 g ai/ha, visual rating 0-100, 0 no effect, 100 complete control
[6] = 500 g ai/ha, visual rating, 0 = no effect, 100 = complete control

CCc1nn(C(C)(C)C)cc1C(=O)Nc1cccc(C(C)=NO)c1 [Compound 188]
70: Plant response rating, Surinam Grass (Surinam grass; [5]) | Plant response rating, Pigweed (pigweed; [5]) | Pigweed plant response rating (pigweed; 500 g ai/ha, visual rating) | Rice plant response rating (rice) | Velvetleaf plant response rating (0 to 100 scale) (velvetleaf; [4])
20: Barnyardgrass plant response rating (barnyardgrass [1]; 500 g ai/ha, visual rating) | Cocklebur plant response rating (cocklebur; 125 g ai/ha, visual rating) | Corn plant response rating (corn; 500 g ai/ha, visual rating) | Velvetleaf plant response rating (velvetleaf; 500 g ai/ha, visual rating) | Oat, Wild plant response rating (wild oat; 125 g ai/ha) | Oat, Wild plant response rating (wild oat; 500 g ai/ha)
40: Pigweed plant response rating (0 to 100 scale) (pigweed; [4])
80: Barnyardgrass plant response rating (0 to 100 scale) (barnyardgrass [1]; [4]) | Sedge, Umbrella plant response rating [2] | Ducksalad plant response rating (ducksalad)
60: Barnyardgrass plant response rating (barnyardgrass [3])
90: Cocklebur plant response rating (cocklebur; 500 g ai/ha, visual rating)
30: Surinam Grass plant response rating (0 to 100 scale) (Surinam grass; [4])
100: Plant response rating, Barnyardgrass (barnyardgrass [1]; [5]) | Plant response rating, Velvetleaf (velvetleaf; [5]) | Plant response rating, Foxtail, Giant (giant foxtail; [5]) | Crabgrass, Large plant response rating (0 to 100 scale) (large crabgrass; [4]) | Plant response rating, Crabgrass, Large (large crabgrass; [5])
10: Surinam Grass plant response rating (Surinam grass; 125 g ai/ha, visual rating) | Surinam Grass plant response rating (Surinam grass; 500 g ai/ha, visual rating) | Barnyardgrass plant response rating (barnyardgrass [1]; 125 g ai/ha, visual rating) | Corn plant response rating (0 to 100 scale) (corn; [4]) | Corn plant response rating (corn; 125 g ai/ha, visual rating) | Velvetleaf plant response rating (velvetleaf; 125 g ai/ha, visual rating) | Wheat plant response rating (wheat; 500 g ai/ha) | Foxtail, Giant plant response rating (giant foxtail; 125 g ai/ha, visual rating) | Foxtail, Giant plant response rating (giant foxtail; 500 g ai/ha, visual rating) | Crabgrass, Large plant response rating (large crabgrass; 125 g ai/ha, visual rating) | Crabgrass, Large plant response rating (large crabgrass; 500 g ai/ha, visual rating) | Blackgrass plant response rating (blackgrass; 125 g ai/ha) | Blackgrass plant response rating (blackgrass; 500 g ai/ha)
50: Pigweed plant response rating (pigweed; 125 g ai/ha, visual rating) | Plant response rating, Corn (corn; [5]) | Foxtail, Giant plant response rating (0 to 100 scale) (giant foxtail; [4])
0: Cocklebur plant response rating (0 to 100 scale) (cocklebur; [4]) | Plant response rating, Cocklebur (cocklebur; [5]) | Wheat plant response rating (wheat; 125 g ai/ha)

C=CCNC(=O)c1cccc(NC(=O)c2sc(C(C)(C)C)nc2C)c1 [Compound 202]
10: Surinam Grass plant response rating (Surinam grass; 125 g ai/ha, visual rating) | Surinam Grass plant response rating (Surinam grass; 500 g ai/ha, visual rating) | Plant response rating, Cocklebur (cocklebur; [5]) | Pigweed plant response rating (0 to 100 scale) (pigweed; [4]) | Corn plant response rating (corn; 125 g ai/ha, visual rating) | Corn plant response rating (corn; 500 g ai/ha, visual rating) | Velvetleaf plant response rating (0 to 100 scale) (velvetleaf; [4]) | Velvetleaf plant response rating (velvetleaf; 125 g ai/ha, visual rating) | Foxtail, Giant plant response rating (0 to 100 scale) (giant foxtail; [4]) | Foxtail, Giant plant response rating (giant foxtail; 125 g ai/ha, visual rating) | Foxtail, Giant plant response rating (giant foxtail; 500 g ai/ha, visual rating) | Oat, Wild plant response rating (wild oat; 125 g ai/ha) | Oat, Wild plant response rating (wild oat; 500 g ai/ha) | Crabgrass, Large plant response rating (large crabgrass; 500 g ai/ha, visual rating)
60: Plant response rating, Surinam Grass (Surinam grass; [5]) | Crabgrass, Large plant response rating (0 to 100 scale) (large crabgrass; [4]) | Ducksalad plant response rating (ducksalad)
0: Surinam Grass plant response rating (0 to 100 scale) (Surinam grass; [4]) | Barnyardgrass plant response rating (barnyardgrass [1]; 125 g ai/ha, visual rating) | Barnyardgrass plant response rating (barnyardgrass [1]; 500 g ai/ha, visual rating) | Cocklebur plant response rating (0 to 100 scale) (cocklebur; [4]) | Corn plant response rating (0 to 100 scale) (corn; [4]) | Wheat plant response rating (wheat; 125 g ai/ha) | Wheat plant response rating (wheat; 500 g ai/ha) | Crabgrass, Large plant response rating (large crabgrass; 125 g ai/ha, visual rating) | Blackgrass plant response rating (blackgrass; 125 g ai/ha) | Blackgrass plant response rating (blackgrass; 500 g ai/ha)
50: Sedge, Umbrella plant response rating [2]
90: Plant response rating, Barnyardgrass (barnyardgrass [1]; [5]) | Plant response rating, Pigweed (pigweed; [5]) | Plant response rating, Foxtail, Giant (giant foxtail; [5])
100: Plant response rating, Crabgrass, Large (large crabgrass; [5])
30: Cocklebur plant response rating (cocklebur; 125 g ai/ha, visual rating) | Pigweed plant response rating (pigweed; 125 g ai/ha, visual rating) | Rice plant response rating (rice) | Velvetleaf plant response rating (velvetleaf; 500 g ai/ha, visual rating)
40: Cocklebur plant response rating (cocklebur; 500 g ai/ha, visual rating) | Pigweed plant response rating (pigweed; 500 g ai/ha, visual rating) | Barnyardgrass plant response rating (barnyardgrass [3])
20: Barnyardgrass plant response rating (0 to 100 scale) (barnyardgrass [1]; [4]) | Plant response rating, Corn (corn; [5]) | Plant response rating, Velvetleaf (velvetleaf; [5])

CCc1nc(C(C)(C)C)sc1C(=O)Nc1cccc(C(=O)NCC2CC2)n1 [Compound 215]
0: Surinam Grass plant response rating (0 to 100 scale) (Surinam grass; [4]) | Surinam Grass plant response rating (Surinam grass; 125 g ai/ha, visual rating) | Barnyardgrass plant response rating (barnyardgrass [1]; 125 g ai/ha, visual rating) | Cocklebur plant response rating (0 to 100 scale) (cocklebur; [4]) | Plant response rating, Cocklebur (cocklebur; [6]) | Corn plant response rating (0 to 100 scale) (corn; [4]) | Plant response rating, Corn (corn; [6]) | Corn plant response rating (corn; 125 g ai/ha, visual rating) | Velvetleaf plant response rating (0 to 100 scale) (velvetleaf; [4]) | Wheat plant response rating (wheat; 125 g ai/ha) | Foxtail, Giant plant response rating (0 to 100 scale) (giant foxtail; [4]) | Foxtail, Giant plant response rating (giant foxtail; 125 g ai/ha, visual rating) | Crabgrass, Large plant response rating (0 to 100 scale) (large crabgrass; [4]) | Crabgrass, Large plant response rating (large crabgrass; 125 g ai/ha, visual rating) | Crabgrass, Large plant response rating (large crabgrass; 500 g ai/ha, visual rating) | Blackgrass plant response rating (blackgrass; 125 g ai/ha) | Blackgrass plant response rating (blackgrass; 500 g ai/ha)
40: Velvetleaf plant response rating (velvetleaf; 125 g ai/ha, visual rating)
100: Plant response rating, Pigweed (pigweed; [6])
80: Cocklebur plant response rating (cocklebur; 500 g ai/ha, visual rating) | Pigweed plant response rating (0 to 100 scale) (pigweed; [4]) | Plant response rating, Foxtail, Giant (giant foxtail; [6]) | Plant response rating, Crabgrass, Large (large crabgrass; [6])
20: Barnyardgrass plant response rating (barnyardgrass [1]; 500 g ai/ha, visual rating) | Cocklebur plant response rating (cocklebur; 125 g ai/ha, visual rating) | Pigweed plant response rating (pigweed; 125 g ai/ha, visual rating) | Wheat plant response rating (wheat; 500 g ai/ha) | Foxtail, Giant plant response rating (giant foxtail; 500 g ai/ha, visual rating) | Oat, Wild plant response rating (wild oat; 500 g ai/ha)
90: Sedge, Umbrella plant response rating [2] | Ducksalad plant response rating (ducksalad)
10: Surinam Grass plant response rating (Surinam grass; 500 g ai/ha, visual rating) | Barnyardgrass plant response rating (0 to 100 scale) (barnyardgrass [1]; [4]) | Corn plant response rating (corn; 500 g ai/ha, visual rating) | Oat, Wild plant response rating (wild oat; 125 g ai/ha)
30: Rice plant response rating (rice) | Barnyardgrass plant response rating (barnyardgrass [3])
70: Plant response rating, Surinam Grass (Surinam grass; [6]) | Pigweed plant response rating (pigweed; 500 g ai/ha, visual rating)
60: Plant response rating, Barnyardgrass (barnyardgrass [1]; [6]) | Plant response rating, Velvetleaf (velvetleaf; [6]) | Velvetleaf plant response rating (velvetleaf; 500 g ai/ha, visual rating)
